Experimental data: PubChem BioAssay AID256 (DTP/NCI, 2004)
Where “and” joins values, the source holds several entries; their conditions need not be identical. Equal values may be shown once. Toxic doses and inconclusive results are not listed. Non-standard residues stand in square brackets, D forms with d. Residues, ends and D or L forms follow the SMILES beside them. ξ: configuration not given here. *: point of attachment. ξF = NC(Cc1ccccc1)C(=O)O; Cbz = O=C(OCc1ccccc1)*; Nva = CCC[CH](N)C(=O)O; ClAc = O=C(CCl)*

Test system: CD2F1 mice, L1210 leukemia ip, survival T/C
Test: NCI In Vivo Anticancer Drug Screen. Data for tumor model L1210 Leukemia (intraperitoneal) in CD2F1 (CDF1) mice
Conditions: higher = longer survival
Method in brief: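 In this screen, transplantable tumors were grown in mice given either the compound or its vehicle. Results were expressed as the treated measurement relative to the control measurement.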

[1] = endpoint: mean survival time, dose: 50.0 mg/kg/injection, schedule: Q01DX009 (ip), vehicle: saline with Tween-80
[2] = endpoint: mean survival time, dose: 100.0 mg/kg/injection, schedule: Q01DX009 (ip), vehicle: saline with Tween-80
[3] = endpoint: mean survival time, dose: 200.0 mg/kg/injection, schedule: Q01DX009 (ip), vehicle: saline with Tween-80
[4] = endpoint: mean survival time, dose: 100.0 mg/kg/injection, schedule: Q04DX003 (ip), vehicle: saline
[5] = endpoint: mean survival time, dose: 200.0 mg/kg/injection, schedule: Q04DX003 (ip), vehicle: saline with Tween-80
[6] = endpoint: mean survival time, dose: 400.0 mg/kg/injection, schedule: Q04DX003 (ip), vehicle: saline with Tween-80
[7] = endpoint: mean survival time, dose: 25.0 mg/kg/injection, schedule: Q01DX009 (ip), vehicle: saline with Tween-80
[8] = endpoint: mean survival time, dose: 100.0 mg/kg/injection, schedule: Q01DX009 (ip), vehicle: Klucel (hydroxypropylcellulose) (HPC)
[9] = endpoint: mean survival time, dose: 200.0 mg/kg/injection, schedule: Q01DX009 (ip), vehicle: Klucel (hydroxypropylcellulose) (HPC)
[10] = endpoint: mean survival time, dose: 25.0 mg/kg/injection, schedule: Q01DX009 (ip), vehicle: Klucel (hydroxypropylcellulose) (HPC)
[11] = endpoint: mean survival time, dose: 400.0 mg/kg/injection, schedule: Q01DX009 (ip), vehicle: saline with Tween-80
[12] = endpoint: mean survival time, dose: 100.0 mg/kg/injection, schedule: Q04DX003 (ip), vehicle: saline with Tween-80

CC(/C=N/N(C)C)=N\N(C)C
T/C (endpoint: mean survival time, dose: 50.0 mg/kg/injection, schedule: Q01DX009 (ip), vehicle: saline): 108 % of control
T/C (endpoint: mean survival time, dose: 100.0 mg/kg/injection, schedule: Q01DX009 (ip), vehicle: saline): 96 % of control

CC(C)[CH2][Sn](=[O])[OH]
T/C [1]: 115 % of control
T/C [2]: 103 % of control

O=C(Cc1ccccc1)NCc1ccccc1
T/C (endpoint: mean survival time, dose: 6.25 mg/kg/injection, schedule: Q01DX001 (ip), vehicle: saline): 101 % of control
T/C (endpoint: mean survival time, dose: 12.5 mg/kg/injection, schedule: Q01DX001 (ip), vehicle: saline): 94 % of control
T/C (endpoint: mean survival time, dose: 25.0 mg/kg/injection, schedule: Q01DX001 (ip), vehicle: saline): 101 % of control

COC(=O)C1C=C2c3cccc4[nH]cc(c34)CC2N(C)C1 (configuration not stated)
T/C (endpoint: mean survival time, dose: 100.0 mg/kg/injection, schedule: Q04DX003 (ip), vehicle: saline sonified): 97 % of control
T/C (endpoint: mean survival time, dose: 200.0 mg/kg/injection, schedule: Q04DX003 (ip), vehicle: saline sonified): 97 % of control
T/C (endpoint: mean survival time, dose: 400.0 mg/kg/injection, schedule: Q04DX003 (ip), vehicle: saline sonified): 109 % of control

O=[As](O)(O)CC(Br)CBr (configuration not stated)
T/C [2]: 100 % of control
T/C [3]: 94 % of control

CCN(CC)C(=O)c1ccc[n+](Cc2ccc(Cl)cc2)c1
T/C [4]: 102 % of control

CCCCCCNC(=O)Nc1ccc(Cl)c(Cl)c1
T/C [5]: 92 % of control
T/C [6]: 93 % of control

COc1ccccc1[As](=O)(O)CC(O)COc1ccc(Cl)cc1Cl (configuration not stated)
T/C (endpoint: mean survival time, dose: 6.25 mg/kg/injection, schedule: Q04DX003 (ip), vehicle: saline): 98 % of control
T/C (endpoint: mean survival time, dose: 12.5 mg/kg/injection, schedule: Q04DX003 (ip), vehicle: saline): 96 % of control

C/C=C\c1ccc(OCCOC(=O)Nc2ccc(C)c([N+](=O)[O-])c2)c(OC)c1
T/C (endpoint: mean survival time, dose: 12.5 mg/kg/injection, schedule: Q01DX009 (ip), vehicle: saline with Tween-80): 98 % of control
T/C [7]: 92 % of control
T/C [1]: 88 % of control and 92 % of control
T/C [3]: 88 % of control

CCOC(=O)C1(C(=O)OCC)CCC(O)N1C(=O)Cc1ccccc1[N+](=O)[O-] (configuration not stated)
T/C [8]: 101 % of control
T/C [9]: 97 % of control

O=C(/C=C1\C(=O)Nc2ccccc21)/C=C1/C(=O)Nc2ccccc21
T/C [10]: 97 % of control
T/C (endpoint: mean survival time, dose: 50.0 mg/kg/injection, schedule: Q01DX009 (ip), vehicle: Klucel (hydroxypropylcellulose) (HPC)): 104 % of control
T/C [8]: 95 % of control

Cc1cc2nc(CC(O)(C(F)(F)F)C(F)(F)F)oc2cc1C
T/C [2]: 91 % of control
T/C [3]: 92 % of control
T/C [11]: 96 % of control

CCCC(NC(=O)C(C)NC(=O)OCc1ccccc1)C(N)=O (stereo not drawn) (Cbz-Ala-[Nva]-NH2; configuration not given here)
T/C [2]: 90 % of control
T/C [3]: 92 % of control
T/C [11]: 92 % of control

c1ccc(N/N=C(/CC/C(=N\Nc2ccccc2)c2ccccc2)c2ccccc2)cc1
T/C (endpoint: mean survival time, dose: 100.0 mg/kg/injection, schedule: Q01DX001 (ip), vehicle: saline with Tween-80): 96 % of control
T/C (endpoint: mean survival time, dose: 200.0 mg/kg/injection, schedule: Q01DX001 (ip), vehicle: saline with Tween-80): 96 % of control
T/C (endpoint: mean survival time, dose: 400.0 mg/kg/injection, schedule: Q01DX001 (ip), vehicle: saline with Tween-80): 93 % of control

COC(=O)N(C)c1cccc(OC(=O)N(C)C)c1
T/C [12]: 92 % of control
T/C [5]: 99 % of control
T/C [6]: 99 % of control

COP(=O)(OC)OCC1OC(n2cnc3c(N)ncnc32)C(O)C1O (configuration not stated)
T/C (endpoint: median survival time, dose: 12.5 mg/kg/injection, schedule: Q01DX005 (ip), vehicle: water): 96 % of control
T/C (endpoint: median survival time, dose: 25.0 mg/kg/injection, schedule: Q01DX005 (ip), vehicle: water): 96 % of control
T/C (endpoint: median survival time, dose: 50.0 mg/kg/injection, schedule: Q01DX005 (ip), vehicle: water): 102 % of control
T/C (endpoint: median survival time, dose: 100.0 mg/kg/injection, schedule: Q01DX005 (ip), vehicle: water): 103 % of control
T/C (endpoint: median survival time, dose: 200.0 mg/kg/injection, schedule: Q01DX005 (ip), vehicle: water): 100 % of control

C=C(C)CS(=O)[O-].[C-]#[O+].[C-]#[O+].[Fe+6].[c-]1[c-][c-][cH-][c-]1
T/C (endpoint: mean survival time, dose: 6.25 mg/kg/injection, schedule: Q04DX002 (ip), vehicle: saline): 97 % of control
T/C (endpoint: mean survival time, dose: 12.5 mg/kg/injection, schedule: Q04DX002 (ip), vehicle: saline): 97 % of control
T/C (endpoint: mean survival time, dose: 25.0 mg/kg/injection, schedule: Q04DX002 (ip), vehicle: saline): 97 % of control

Cc1ccc2nc(O)cc(=O)n2c1
T/C (endpoint: mean survival time, dose: 50.0 mg/kg/injection, schedule: Q01DX001 (ip), vehicle: saline): 103 % of control
T/C (endpoint: mean survival time, dose: 100.0 mg/kg/injection, schedule: Q01DX001 (ip), vehicle: saline): 103 % of control
T/C (endpoint: mean survival time, dose: 200.0 mg/kg/injection, schedule: Q01DX001 (ip), vehicle: saline): 97 % of control
T/C (endpoint: mean survival time, dose: 400.0 mg/kg/injection, schedule: Q01DX001 (ip), vehicle: saline): 94 % of control

C/C(=N\O)C1(C)CC=CCC1C(=O)O (configuration not stated)
T/C [2]: 90 % of control
T/C [12]: 100 % of control
T/C [3]: 93 % of control
T/C [5]: 96 % of control
T/C [11]: 94 % of control
T/C [6]: 94 % of control

O=C(CCl)NCC(=O)NC(Cc1ccccc1)C(=O)O (configuration not stated) (ClAc-Gly-[ξF]-OH)
T/C [12]: 98 % of control
T/C [5]: 96 % of control
T/C [6]: 96 % of control

CCN(CC)CCCC(C)(NCc1ccccc1)[P+](=O)O (configuration not stated)
T/C [2]: 90 % of control
T/C [4]: 96 % of control
T/C [3]: 86 % of control
T/C (endpoint: mean survival time, dose: 200.0 mg/kg/injection, schedule: Q04DX003 (ip), vehicle: saline): 91 % of control
T/C [11]: 94 % of control
T/C (endpoint: mean survival time, dose: 400.0 mg/kg/injection, schedule: Q04DX003 (ip), vehicle: saline): 94 % of control

CCCCCC(=O)NNc1nc(N)nc2nonc12
T/C (endpoint: mean survival time, dose: 6.25 mg/kg/injection, schedule: Q01DX005 (ip), vehicle: other): 109 % of control
T/C (endpoint: mean survival time, dose: 12.5 mg/kg/injection, schedule: Q01DX005 (ip), vehicle: other): 97 % of control
T/C (endpoint: mean survival time, dose: 25.0 mg/kg/injection, schedule: Q01DX005 (ip), vehicle: other): 105 % of control
T/C (endpoint: mean survival time, dose: 50.0 mg/kg/injection, schedule: Q01DX005 (ip), vehicle: other): 97 % of control
T/C (endpoint: mean survival time, dose: 100.0 mg/kg/injection, schedule: Q01DX005 (ip), vehicle: other): 100 % of control

CC(=O)C(C)(C)C
T/C (endpoint: mean survival time, dose: 100.0 mg/kg/injection, schedule: Q04DX002 (ip), vehicle: saline): 96 % of control
T/C (endpoint: mean survival time, dose: 200.0 mg/kg/injection, schedule: Q04DX002 (ip), vehicle: saline): 104 % of control
T/C (endpoint: mean survival time, dose: 400.0 mg/kg/injection, schedule: Q04DX002 (ip), vehicle: saline): 104 % of control

CCOC(=O)N(N=O)c1ccc2c(c1)C(=O)c1ccccc1-2
T/C (endpoint: mean survival time, dose: 100.0 mg/kg/injection, schedule: Q01DX001 (ip), vehicle: carboxymethylcellulose (CMC)): 103 % of control
T/C (endpoint: mean survival time, dose: 200.0 mg/kg/injection, schedule: Q01DX001 (ip), vehicle: carboxymethylcellulose (CMC)): 97 % of control
T/C (endpoint: mean survival time, dose: 400.0 mg/kg/injection, schedule: Q01DX001 (ip), vehicle: carboxymethylcellulose (CMC)): 94 % of control

COc1ccc(NC(=O)Oc2ccc(C(C)(C)C)cc2)cc1
T/C [7]: 93 % of control
T/C (endpoint: mean survival time, dose: 25.0 mg/kg/injection, schedule: Q04DX002 (ip), vehicle: saline with Tween-80): 104 % of control
T/C [1]: 97 % of control
T/C (endpoint: mean survival time, dose: 50.0 mg/kg/injection, schedule: Q04DX002 (ip), vehicle: saline with Tween-80): 117 % of control
T/C [2]: 97 % of control
T/C (endpoint: mean survival time, dose: 100.0 mg/kg/injection, schedule: Q04DX002 (ip), vehicle: saline with Tween-80): 87 % of control and 93 % of control

COc1ccc(C(=Nc2ccc(C)cc2)c2ccc([N+](=O)[O-])cc2)cc1
T/C [2]: 94 % of control
T/C [12]: 98 % of control
T/C [3]: 98 % of control
T/C [5]: 98 % of control
T/C [11]: 96 % of control
T/C [6]: 98 % of control

Nc1ccn(C2CC(CO)C(O)C2O)c(=O)n1 (configuration not stated)
T/C (endpoint: mean survival time, dose: 150.0 mg/kg/injection, schedule: Q01DX009 (ip), vehicle: saline): 204 % of control

c1ccc2nc3ccccc3cc2c1
T/C [2]: 101 % of control
T/C [3]: 103 % of control

NC(=O)c1ncn(C2OC(CO)C(O)C2O)c1O (configuration not stated)
T/C (endpoint: mean survival time, dose: 12.5 mg/kg/injection, schedule: Q01DX009 (ip), vehicle: Klucel (hydroxypropylcellulose) (HPC)): 122 % of control
T/C [10]: 113 % of control and 120 % of control
T/C [9]: 116 % of control and 106 % of control
T/C (endpoint: mean survival time, dose: 400.0 mg/kg/injection, schedule: Q01DX009 (ip), vehicle: Klucel (hydroxypropylcellulose) (HPC)): 120 % of control and 93 % of control and 110 % of control

CCCCC(O)CCCCCCCCCC(=O)O (configuration not stated)
T/C [12]: 97 % of control
T/C [5]: 101 % of control

CCOC(=O)C(O)(C(=O)OCC)C(C)C
T/C [2]: 94 % of control
T/C [3]: 100 % of control
T/C [11]: 94 % of control

COc1ccc(NC(=O)C2C3C=CC(C3)C2C(=O)O)cc1 (configuration not stated)
T/C [12]: 98 % of control
T/C [5]: 98 % of control
